In PMC6022228, “Introducing novel potent anticancer agents of 1H-benzo[f]chromene scaffolds, targeting c-Src kinase enzyme with MDA-MB-231 cell line anti-invasion effect” (Journal of Enzyme Inhibition and Medicinal Chemistry, 2018):
Converted amounts (≈) assume the structure as drawn.

Key:
[1] = tested on: MCF-7; test: MTT viability assay, MCF-7 (breast cancer); type: cell-based; conditions: Homo sapiens, MCF7, 24 h incubation, mean ± standard error
Method: (§1) Compounds 4a–h and 6a–h were initially evaluated for in vitro antitumour activity against three different human cell lines: MCF-7, HCT-116, and HepG-2, and only the representative active cytotoxic compounds were further evaluated against the normal HFL-1 cell line. The in vitro cytotoxicity evaluation was performed at the Regional Center for Mycology & Biotechnology (RCMP), Al-Azhar University under different concentrations (50, 25, 12.5, 6.25, 3.125, 1.56, and 0 µg/mL); Vinblastine and Doxorubicin are used as reference cytotoxic compounds. The measurements of cell growth and the in vitro cytotoxicity evaluation were determined using viability assay as described in literature[31–33] and the result was cited in Table 1 and Figure 2.
(§2) The in vitro cytotoxic evaluation of the prepared compounds 4a–h and 6a–h was performed against MCF-7 (breast cancer), HCT-116 (human colon cancer), HepG-2 (liver cancer), and HFL-1(normal fibroblast lung) using the 3-(4,5-dimethylthiazol-2-yl)-2,5-diphenyl tetrazolium bromide (MTT) colorimetric assay as described in literature. […] The results were expressed as growth inhibitory concentration (IC50) values, which represent the compounds’ concentrations required to produce a 50% inhibition of the cell growth after 24 h of incubation, compared to the untreated controls as shown in Table 1 and Figure 2.

[2] = tested on: HFL-1; test: MTT viability assay, HFL-1 (normal fibroblast lung); type: cell-based; conditions: Homo sapiens, HFL1, 24 h incubation, normal cell line, mean ± standard error
Method: as §1, §2

[3] = tested on: HCT-116; test: MTT viability assay, HCT-116 (human colon cancer); type: cell-based; conditions: 24 h incubation, mean ± standard error
Method: as §1, §2

[4] = molecular target: T1, c-Src kinase (Homo sapiens, UniProt P12931); test: c-Src kinase assay (HTScan Src Kinase Assay Kit); type: biochemical; conditions: GST-Src kinase, triplicate; read-out: Inhibition of c-Src kinase activity, IC50
T1 construct: purchased Cell Signaling Technology (Danvers, MA) 7776
T1 sequence (P12931 whole entry): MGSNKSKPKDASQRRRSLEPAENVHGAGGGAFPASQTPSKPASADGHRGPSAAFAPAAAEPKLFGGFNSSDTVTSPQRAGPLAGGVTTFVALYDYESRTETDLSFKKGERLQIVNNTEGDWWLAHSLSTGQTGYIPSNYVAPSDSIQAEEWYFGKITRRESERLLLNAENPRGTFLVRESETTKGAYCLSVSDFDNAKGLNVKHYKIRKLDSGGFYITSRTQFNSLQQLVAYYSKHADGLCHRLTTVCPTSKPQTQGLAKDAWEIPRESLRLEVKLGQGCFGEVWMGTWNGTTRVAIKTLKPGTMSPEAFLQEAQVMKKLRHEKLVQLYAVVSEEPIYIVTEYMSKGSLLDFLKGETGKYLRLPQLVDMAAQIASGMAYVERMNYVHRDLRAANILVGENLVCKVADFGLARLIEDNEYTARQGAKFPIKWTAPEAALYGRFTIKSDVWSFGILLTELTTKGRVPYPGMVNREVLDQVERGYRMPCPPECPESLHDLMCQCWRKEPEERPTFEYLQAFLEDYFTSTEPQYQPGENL
Method: Streptavidin-coated plates were purchased from Pierce (Rockford, IL). […] The reaction mixture was incubated for 30 min at room temperature. The kinase reaction was stopped with the addition of 50 µL of 50 mM EDTA (pH 8.0). […] At the end of the incubation, the wells were washed three times with 200 µL of 0.05% Tween-20 in PBS buffer (PBS/T). After that to each well was added 100 µL of phosphotyrosine antibody (P-Tyr-100) (1:1000 dilution in PBS/T with 1% BSA) and the wells were incubated for another 60 min. After washing three times with 0.05% Tween-20 in PBS/T, the wells were incubated with 100 µL secondary anti-mouse IgG antibody, which was HRP-conjugated (1:500 dilution in PBS/T with 1% BSA) for next 30 min at room temperature. The wells were washed five times with 0.05% Tween-20 in PBS and then were incubated with 100 µL of 3,3′,5,5′-tetramethylbenzidine dihydrochloride substrate for 5 min. […] IC50 values of the compounds were calculated using ORIGIN 6.0 (Origin Lab Corporation, Northampton, MA) software. […] All the experiments were carried out in triplicate.

[5] = tested on: MDA-MB-231 cell line; test: Cell invasion assay; type: cell-based; conditions: Homo sapiens, Table 2, read-out: IC50 anti-invasion, MDA-MB-231 breast cancer cells
Method: The cell invasion assay was performed by Reaction Biology Corporation, One Great Valley Parkway, PA. All compounds were dissolved in DMSO and tested for their ability to cell invasion assay. Compounds 4c, 6e, and reference compound bosutinib were purchased from Sellechem (Houston, TX). Corning Bio Coat Fluoro Blok Insert System-96-well plates were purchased from Corning (Corning Incorporated, Tewksbury, MA). Calcein AM labelling reagent was purchased from Molecular Probes (Eugene, Oregon). MDA-MB-231 cell line was purchased from American Type Culture Collection (Manassas, VA). MDA-MB-231 cells were grown in DMEM medium supplemented with 10% foetal bovine serum (FBS), 100 µg/mL of penicillin, and 100 µg/mL of streptomycin. Cultures were maintained at 37 °C in a humidified atmosphere of 5% CO2 and 95% air-following incubation; medium was carefully removed from the apical chambers. The insert system was transferred into a second 96-square well plate containing 200 µl/well of 4 µg/mL Calcein AM in HBSS. The plates were incubated for 1 h at 37 °C, 5% CO2. Fluorescence of invaded cells was read at wavelengths of 492/535 nm (Ex/Em) from bottom reading using Envision 2104 Multilabel Reader (PerkinElmer, Santa Clara, CA). The IC50 curves were plotted and IC50 values were calculated using the Graph Pad Prism 4 program for windows (Graph Pad software, San Diego California. www.graphpad.com) based on a sigmoidal dose-response equation.
Tumour invasion is a common feature of triple-negative breast cancers. […] The invasion process has become an important prerequisite for cancer progression and metastasis. […] A bosutinib drug was used as a control ant-invasive agent. […] The obtained data might confirm that the cytotoxicity of novel molecules led to the death of the cancer cells and stopped the metastatic processes.

[6] = tested on: HepG-2; test: MTT viability assay, HepG-2 (liver cancer); type: cell-based; conditions: Homo sapiens, HepG2, 24 h incubation, mean ± standard error
Method: as §1, §2

[7] = tested on: caspases 3/7 in MDA-MB-231 cells; test: Caspase-Glo 3/7 activity assay; type: cell-based; conditions: Homo sapiens, 24 h treatment, 10 concentrations, read-out: Caspase-Glo 3/7 activity assay, MDA-MB-231 cell line, IC50
Method: The Caspase-Glo 3/7 activity assay was performed by Reaction Biology Corporation, One Great Valley Parkway, PA. Examined compounds 4c, 4e, 4h, 6d, and 6e were dissolved in DMSO as 20 mM stock and tested for their ability to Caspase-Glo 3/7 activity assay. […] Caspase-Glo 3/7 activity assay reagent was purchased from Promega (Madison, WI). MDA-MB-231 cell line was provided by ATCC. MDA-MB-231 cell line culture conditions: DMEM with 10% FBS. 100 µg/mL penicillin and 100 µg/mL streptomycin were added to the culture media. Cultures were maintained at 37 °C in a humidified atmosphere of 5% CO2 and 95% air.
Caspases are […] that promote apoptosis. Caspases are vital biochemical features of apoptotic signalling. […] To determine whether the cell growth inhibition in response to the benzochromene derivatives was mediated by apoptosis and was caspase dependent, MDA-MB-231 cells were treated with 10 different concentrations of the target compounds for 24 h.

- melting point: 232 to 233 °C
- IC50 [1]: 0.3 ± 0.05 µg/mL (≈ 0.876 µM)
- IC50 [3]: 0.8 ± 0.06 µg/mL (≈ 2.34 µM)
- IC50 [4]: 0.009 µM
- IC50 [5]: 16.5 µM
- IC50 [6]: 0.6 ± 0.21 µg/mL (≈ 1.75 µM)
- IC50 [7]: 38.9 µM
Structure (SMILES): COc1ccc2c3c(ccc2c1)OC(N)=C(C#N)C3c1ccc(C)cc1 (centres unmarked) [Compound 6e, 3-Amino-8-methoxy-1-(4-methylphenyl)-1H-benzo[f]chromene-2-carbonitrile]
- IC50 [2]: 29.7 ± 0.17 µg/mL (≈ 86.7 µM)
